The source of these data is patent publication US20250129104A1, “7H-PYRROLO[2,3-D]PYRIMIDINES AND PREPARATION AND USES THEREOF” (BioSplice Therapeutics, Inc., priority 2021, published 2025).

The target in experiment [1] is recombinant DYRK1A kinase (Homo sapiens (Human), UniProt Q13627). Briefly: DYRK1A kinase assay (Ser/Thr 18 peptide Z-lyte FRET assay). Format: biochemical. Particulars: DYRK1A kinase activity; 15 μM ATP, 1 h room temperature; method text calls the value IC50. In outline:
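Recombinant human DYRK1A (0.25 μg/mL) with 15 μM ATP and 4 μM Ser/Thr 18 peptide, 1 h at room temperature with compound (11-point, 1:3, 10 μM top, duplicate). Z-lyte development 1 h, then coumarin/fluorescein FRET emission ratio converted to % phosphorylation; IC50 by non-linear regression.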

For experiment [2], the system named is Tau phosphorylation at Thr212 (pThr212). Briefly: tau phosphorylation assay: phosphoTau (Thr212) AlphaLISA in HEK293T cells transfected with DYRK1A and MAPT. In kind it is cell-based. The settings on record: HEK-293T; HEK293T cells transfected with human DYRK1A and MAPT; 18-24 h compound treatment; read-out: pTau (Thr212) EC50. As to the method: Representative compounds were screened using the assay procedure for tau phosphorylation activity described below.
HEK293T cells (ATCC, CRL3216) cultured in DMEM (Thermo Fisher Scientific, 10566024) supplemented with 10% FBS (Corning, 35-011-CV) and Penicillin/Streptomycin (Thermo Fisher Scientific, 15140163) were seeded in a 75 cm^2 flask at 8.1×10^6 cells/flask. The HEK293T cells were then transiently transfected with 5 μg DYRK1A (NM_001396) human untagged clone (OriGene, SC314641) and 2.5 μg MAPT (441 a.a. Tau gene) (NM_005910) human untagged clone (OriGene, TP313312) using Lipofectamine 3000 (Thermo Fisher Scientific, L30000015) and incubated for 20-30 hours in a humidified incubator at 37° C. and 5% CO2. Post-incubation, HEK293T cells transfected with the DYRK1A and MAPT expression vectors were harvested and seeded in BioCoat poly-D lysine coated 96-well plates (Corning, 354461) at 3×10^4 cells/well.
The above synthesized compounds were screened using the cell assay procedure to assess decreased Tau phosphorylation at Thr212 (pThr212) described below.
Each compound was dissolved in DMSO (Sigma-Aldrich, D8418-100 mL) as a 10 mM stock. 10 mM stocks were serially diluted 1:3, 10-point dose-response curve and added to the cells with a final concentration ranging from 20 μM to 1.1 nM. Cell were treated with compounds in duplicate and incubated for 18-24 hours in a humidified incubator at 37° C. and 5% CO2.
Following the overnight compound treatment, cells were lysed with 1× Alpha Surefire Ultra Lysis Buffer (Perkin Elmer, ALSU-LB-100ML) complemented with 1× Halt Phosphatase Inhibitor Cocktail (Thermo Fisher Scientific, 78427) and 1× Halt Protease Inhibitor Cocktail (Thermo Fisher Scientific, 78438). Lysates were spun down at 12,000 g for 10 min to remove any cellular debris and 5 μL of lysates were dispensed into a 384-well Opti-Plate (Perkin Elmer, 6007290) for the measurement of Tau phosphorylation in the phosphoTau (Thr212) AlphaLISA assay. Donor antibody, biotinylated HT7Tau (Thermo Fisher Scientific, MN1000B), and acceptor antibody, pThr212Tau (Thermo Fisher Scientific, 44740G) were both added to the cell lysates at a final concentration of 3 nM and incubated for 1 hour at room temperature. Following incubation of the lysates with the donor and acceptor antibodies, anti-rabbit IgG (Fc specific) AlphaLISA acceptor beads (Perkin Elmer, AL104C) were added at a 10 μg/mL final concentration and incubated for 1 hour at room temperature protected from light. Lastly, AlphaScreen streptavidin donor beads (PerkinElmer, 6760002) were added at 40 μg/mL final concentration and incubated for 1 hour at room temperature protected from light. Plates were read at […], and Em=615 nm on the EnVision Multilabel Plate Reader (Perkin Elmer). PhosphoTau (Thr212) AlphaLISA signal was used to plot, draw the curve fitting, and determine each compound's EC50 in Prism (GraphPad).

Regarding `Cc1nc2ccc(-c3c[nH]c4nc(CC(C)C)ncc34)nc2n1C(C)C` [Compound 674, 5-(2-Isobutyl-7H-pyrrolo[2,3-d]pyrimidin-5-yl)-3-isopropyl-2-methyl-3H-imidazo[4,5-b]pyridine], the EC50 (usually the concentration giving half of the maximal effect) in experiment [1] stood at 5.1 nM; in experiment [2], 72 nM.
As for `CC(C)Nc1ncc2c(-c3ccc4ncnn4c3)c[nH]c2n1` [Compound 726, 5-([1,2,4]Triazolo[1,5-a]pyridin-6-yl)-N-isopropyl-7H-pyrrolo[2,3-d]pyrimidin-2-amine], the EC50 in experiment [1] worked out at 22.4 nM; in experiment [2], 815 nM.
The corresponding values for `CC(C)CNc1ncc2c(-c3ccc4ncnn4c3)c[nH]c2n1` [Compound 727, 5-([1,2,4]Triazolo[1,5-a]pyridin-6-yl)-N-isobutyl-7H-pyrrolo[2,3-d]pyrimidin-2-amine] are 6.9 nM and 78 nM.
The corresponding values for `FC(F)CNc1ncc2c(-c3ccc4ncnn4c3)c[nH]c2n1` [Compound 730, 5-([1,2,4]Triazolo[1,5-a]pyridin-6-yl)-N-(2,2-difluoroethyl)-7H-pyrrolo[2,3-d]pyrimidin-2-amine] are 33.6 nM and 504 nM.
In the case of `CC(C)(F)CNc1ncc2c(-c3ccc4ncnn4c3)c[nH]c2n1` [Compound 731, 5-([1,2,4]Triazolo[1,5-a]pyridin-6-yl)-N-(2-fluoro-2-methylpropyl)-7H-pyrrolo[2,3-d]pyrimidin-2-amine], the concentration for a half-maximal effect (EC50) in experiment [1] was found to be 8.6 nM; in experiment [2], 199 nM.
Turning to `CC(F)(F)CNc1ncc2c(-c3ccc4ncnn4c3)c[nH]c2n1` [Compound 732, 5-([1,2,4]Triazolo[1,5-a]pyridin-6-yl)-N-(2,2-difluoropropyl)-7H-pyrrolo [2,3-d]pyrimidin-2-amine], the EC50 in experiment [1] was found to be 11.7 nM; in experiment [2], 191 nM.
In the same order, the values of `C[C@@H](Nc1ncc2c(-c3ccc4ncnn4c3)c[nH]c2n1)C(F)(F)F` [Compound 734, (R)-5-([1,2,4]Triazolo[1,5-a]pyridin-6-yl)-N-(1,1,1-trifluoropropan-2-yl)-7H-pyrrolo[2,3-d]pyrimidin-2-amine] are 18.7 nM and 335 nM.
The corresponding values for `FC1(CNc2ncc3c(-c4ccc5ncnn5c4)c[nH]c3n2)CC1` [Compound 739, 5-([1,2,4]Triazolo[1,5-a]pyridin-6-yl)-N-((1-fluorocyclopropyl)methyl)-7H-pyrrolo[2,3-d]pyrimidin-2-amine] are 32.6 nM and 265 nM.
The corresponding values for `C[C@@H](Nc1ncc2c(-c3ccc4ncnn4c3)c[nH]c2n1)C1CC1` [Compound 740, (R)-5-([1,2,4]Triazolo[1,5-a]pyridin-6-yl)-N-(1-cyclopropylethyl)-7H-pyrrolo [2,3-d]pyrimidin-2-amine] are 22 nM and 226 nM.
As for `FC1(F)CC(Nc2ncc3c(-c4ccc5ncnn5c4)c[nH]c3n2)C1` [Compound 744, 5-([1,2,4]Triazolo[1,5-a]pyridin-6-yl)-N-(3,3-difluorocyclobutyl)-7H-pyrrolo [2,3-d]pyrimidin-2-amine], the EC50 in experiment [1] is 6.5 nM; in experiment [2] it was 213 nM.
The corresponding values for `FC1(CNc2ncc3c(-c4ccc5ncnn5c4)c[nH]c3n2)CCC1` [Compound 745, 5-([1,2,4]Triazolo[1,5-a]pyridin-6-yl)-N-((1-fluorocyclobutyl)methyl)-7H-pyrrolo[2,3-d]pyrimidin-2-amine] are 5.1 nM and 90 nM.
The corresponding values for `FC1(F)CCC(Nc2ncc3c(-c4ccc5ncnn5c4)c[nH]c3n2)CC1` [Compound 746, 5-([1,2,4]Triazolo[1,5-a]pyridin-6-yl)-N-(4,4-difluorocyclohexyl)-7H-pyrrolo [2,3-d]pyrimidin-2-amine] are 29.2 nM and 521 nM.
In the same order, the values of `FC1(CNc2ncc3c(-c4ccc5ncnn5c4)c[nH]c3n2)CCCCC1` [Compound 748, 5-([1,2,4]Triazolo[1,5-a]pyridin-6-yl)-N-((1-fluorocyclohexyl)methyl)-7H-pyrrolo[2,3-d]pyrimidin-2-amine] are 20 nM and 174 nM.
Regarding `FC1(F)CCC(CNc2ncc3c(-c4ccc5ncnn5c4)c[nH]c3n2)CC1` [Compound 749, 5-([1,2,4]Triazolo[1,5-a]pyridin-6-yl)-N-((4,4-difluorocyclohexyl)methyl)-7H-pyrrolo[2,3-d]pyrimidin-2-amine], the EC50 in experiment [1] was 7 nM; in experiment [2] it was 80 nM.
The corresponding values for `CN1CCC(Nc2ncc3c(-c4ccc5ncnn5c4)c[nH]c3n2)CC1` [Compound 750, 5-([1,2,4]Triazolo[1,5-a]pyridin-6-yl)-N-(1-methylpiperidin-4-yl)-7H-pyrrolo [2,3-d]pyrimidin-2-amine] are 26.9 nM and 67 nM.
In the same order, the values of `CC(C)CNc1ncc2c(-c3cc(F)c4ncnn4c3)c[nH]c2n1` [Compound 771, 5-(8-Fluoro-[1,2,4]triazolo[1,5-a]pyridin-6-yl)-N-isobutyl-7H-pyrrolo[2,3-d]pyrimidin-2-amine] are 18 nM and 470 nM.
In the same order, the values of `CC(C)(F)CNc1ncc2c(-c3ccn4ncnc4c3)c[nH]c2n1` [Compound 805, 5-([1,2,4]Triazolo[1,5-a]pyridin-7-yl)-N-(2-fluoro-2-methylpropyl)-7H-pyrrolo[2,3-d]pyrimidin-2-amine] are 11.3 nM and 439 nM.
In the case of `C[C@@H](Nc1ncc2c(-c3ccc4nnn(C)c4c3)c[nH]c2n1)C1CC1` [Compound 831, (R)—N-(1-Cyclopropylethyl)-5-(1-methyl-1H-benzo[d][1,2,3]triazol-6-yl)-7H-pyrrolo[2,3-d]pyrimidin-2-amine], the EC50 came to 7.3 nM in experiment [1] and 165 nM in experiment [2].
The corresponding values for `CO[C@H]1CC[C@@H](Nc2ncc3c(-c4ccc5nnn(C)c5c4)c[nH]c3n2)CC1` [Compound 838, N-(cis-4-Methoxycyclohexyl)-5-(1-methyl-1H-benzo[d][1,2,3]triazol-6-yl)-7H-pyrrolo[2,3-d]pyrimidin-2-amine] are 9.8 nM and 25 nM.
In the same order, the values of `CC(C)(F)CNc1ncc2c(-c3ccc4nccn4n3)c[nH]c2n1` [Compound 909, N-(2-Fluoro-2-methylpropyl)-5-(imidazo[1,2-b]pyridazin-6-yl)-7H-pyrrolo [2,3-d]pyrimidin-2-amine] are 3.4 nM and 40 nM.
The corresponding values for `CC(F)(F)CNc1ncc2c(-c3ccc4nccn4n3)c[nH]c2n1` [Compound 910, N-(2,2-Difluoropropyl)-5-(imidazo[1,2-b]pyridazin-6-yl)-7H-pyrrolo[2,3-d]pyrimidin-2-amine] are 18.6 nM and 283 nM.
As to `C[C@@H](Nc1ncc2c(-c3ccc4nccn4n3)c[nH]c2n1)C(F)(F)F` [Compound 912, (R)-5-(Imidazo[1,2-b]pyridazin-6-yl)-N-(1,1,1-trifluoropropan-2-yl)-7H-pyrrolo[2,3-d]pyrimidin-2-amine], the 50% effective concentration (EC50) in experiment [1] came to 5.5 nM; in experiment [2], 96 nM.
On to `C[C@H](Nc1ncc2c(-c3ccc4nccn4n3)c[nH]c2n1)C(F)(F)F` [Compound 913, (S)-5-(Imidazo[1,2-b]pyridazin-6-yl)-N-(1,1,1-trifluoropropan-2-yl)-7H-pyrrolo[2,3-d]pyrimidin-2-amine], for which the EC50 in experiment [1] came to 6.4 nM; in experiment [2], 228 nM.
With `CC1(CNc2ncc3c(-c4ccc5nccn5n4)c[nH]c3n2)CC1` [Compound 919, 5-(Imidazo[1,2-b]pyridazin-6-yl)-N-((1-methylcyclopropyl)methyl)-7H-pyrrolo[2,3-d]pyrimidin-2-amine], the 50% effective concentration (EC50) in experiment [1] is 4 nM; in experiment [2], 30 nM.
